# Patent US8901118B2, “Compounds and methods for kinase modulation, and indications therefor” (Plexxikon Inc., priority 2010, dated 2014)
# Legend:
# [1] = Relative solubility by turbidity in aqueous buffers (pH 1.5, 4.5, 6.8, 7.4); type: physicochemical; details: for turbidity threshold (L, M, H) 1.4: pH 1.5 (SGF); for turbidity threshold (L, M, H) 4.5: pH 4.5 (SIF); for turbidity threshold (L, M, H) 6.8: pH 6.8 (SIF); for turbidity threshold (L, M, H) 7.4: pH 7.4 (HEPES)
# In short: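 Twofold DMSO dilutions of a 25 mM stock were spiked into SGF (0.5M NaCl, pH 1.5), SIF (0.05M NaH2PO4, pH 4.5 and 6.8) or HEPES buffer (10 mM HEPES, 150 mM NaCl, pH 7.4). Absorbance was read at 490, 535 and 650 nm. The endpoint is the concentration crossing O.D. 0.01, averaged across wavelengths.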
# [2] = biological target: T1, BCR-NTRK3 BaF3 cells (Homo sapiens, UniProt Q16288); experiment: BaF3 BCR-NTRK3 cell proliferation assay (ATPlite); type: cell-based; details: read-out: Inhibition of Cell Proliferation IC50, BCR/BaF3 TrkC
# T1 construct: fused on or other part: P11274 (Breakpoint cluster region protein)
# T1 sequence (Q16288 whole entry, the tested form may be a part): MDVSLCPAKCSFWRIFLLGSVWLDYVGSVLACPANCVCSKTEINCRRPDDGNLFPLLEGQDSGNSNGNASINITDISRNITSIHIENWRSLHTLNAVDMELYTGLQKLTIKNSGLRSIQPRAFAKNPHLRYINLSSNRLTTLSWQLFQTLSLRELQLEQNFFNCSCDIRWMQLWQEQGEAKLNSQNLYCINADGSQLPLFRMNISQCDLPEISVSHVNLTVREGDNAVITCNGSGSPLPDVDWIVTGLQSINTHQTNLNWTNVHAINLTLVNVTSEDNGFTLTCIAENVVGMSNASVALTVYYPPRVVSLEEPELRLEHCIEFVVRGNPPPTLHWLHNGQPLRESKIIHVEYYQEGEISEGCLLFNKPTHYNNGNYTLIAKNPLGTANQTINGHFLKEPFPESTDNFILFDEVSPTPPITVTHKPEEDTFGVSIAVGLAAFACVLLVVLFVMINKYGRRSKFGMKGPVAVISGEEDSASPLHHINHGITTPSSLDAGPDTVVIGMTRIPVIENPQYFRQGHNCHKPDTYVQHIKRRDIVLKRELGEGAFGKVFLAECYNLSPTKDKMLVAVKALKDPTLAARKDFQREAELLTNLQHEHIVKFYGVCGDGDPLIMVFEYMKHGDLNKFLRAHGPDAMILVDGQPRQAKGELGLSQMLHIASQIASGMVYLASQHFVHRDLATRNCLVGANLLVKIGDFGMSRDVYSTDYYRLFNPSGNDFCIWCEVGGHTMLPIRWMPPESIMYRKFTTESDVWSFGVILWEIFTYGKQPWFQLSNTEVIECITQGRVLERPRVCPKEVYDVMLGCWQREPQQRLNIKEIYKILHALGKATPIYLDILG
# In short: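 ATP-based luminescence (ATPlite), read after 10 min at room temperature, served as a proxy for cell number, and IC50 was fitted against compound concentration. Before that, cells were treated for 3 days with an 8-point 1:3 dilution series starting at 10 μM. BaF3 cells were plated at 10,000/well without IL-3, and MV-4-11 cells at 25,000/well.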
SMILES,IC50 [2] [µM],"turbidity threshold (L, M, H) 1.4 [1]","turbidity threshold (L, M, H) 4.5 [1]","turbidity threshold (L, M, H) 6.8 [1]","turbidity threshold (L, M, H) 7.4 [1]"
"Clc1cnc2[nH]cc(Cc3cnc(NC4CCCCC4)nc3)c2c1 [Compound P-3001, [5-(5-chloro-1H-pyrrolo[2,3-b]pyridin-3-ylmethyl)-pyrimidin-2-yl]-cyclohexyl-amine]",> 10,H (high solubility if the threshold concentration is >250 μm),L (low solubility if the threshold concentration is <31.3 μM),L (low solubility if the threshold concentration is <31.3 μM),L (low solubility if the threshold concentration is <31.3 μM)
"COc1ccc(Nc2ccc(C(=O)c3c[nH]c4ncc(C)cc34)c(F)n2)cn1 [Compound P-3040, [2-Fluoro-6-(6-methoxy-pyridin-3-ylamino)-pyridin-3-yl]-(5-methyl-1H-pyrrolo[2,3-b]pyridin-3-yl)-methanone]",< 0.01,M (moderate solubility if the threshold concentration is 31.3 μM to 250 μM),M (moderate solubility if the threshold concentration is 31.3 μM to 250 μM),M (moderate solubility if the threshold concentration is 31.3 μM to 250 μM),M (moderate solubility if the threshold concentration is 31.3 μM to 250 μM)
"Cc1cnc2[nH]cc(C(=O)c3ccc(Nc4ccc(C)nc4)nc3F)c2c1 [Compound P-3043, [2-Fluoro-6-(6-methyl-pyridin-3-ylamino)-pyridin-3-yl]-(5-methyl-1H-pyrrolo[2,3-b]pyridin-3-yl)-methanone]",< 0.1,M (moderate solubility if the threshold concentration is 31.3 μM to 250 μM),M (moderate solubility if the threshold concentration is 31.3 μM to 250 μM),M (moderate solubility if the threshold concentration is 31.3 μM to 250 μM),M (moderate solubility if the threshold concentration is 31.3 μM to 250 μM)
"Cc1ccc(Nc2ccc(C(=O)c3c[nH]c4ncc(Cl)cc34)c(F)n2)cn1 [Compound P-3044, (5-Chloro-1H-pyrrolo[2,3-b]pyridin-3-yl)-[2-fluoro-6-(6-methyl-pyridin-3-ylamino)-pyridin-3-yl]-methanone]",< 0.1,L (low solubility if the threshold concentration is <31.3 μM),L (low solubility if the threshold concentration is <31.3 μM),L (low solubility if the threshold concentration is <31.3 μM),M (moderate solubility if the threshold concentration is 31.3 μM to 250 μM)
"CCOc1ccc(Nc2ccc(C(=O)c3c[nH]c4ncc(C)cc34)c(F)n2)cn1 [Compound P-3045, [6-(6-ethoxy-pyridin-3-ylamino)-2-fluoro-pyridin-3-yl]-(5-methyl-1H-pyrrolo[2,3-b]pyridin-3-yl)-methanone]",< 0.1,M (moderate solubility if the threshold concentration is 31.3 μM to 250 μM),M (moderate solubility if the threshold concentration is 31.3 μM to 250 μM),M (moderate solubility if the threshold concentration is 31.3 μM to 250 μM),L (low solubility if the threshold concentration is <31.3 μM)
"COc1ccc(Nc2ccc(Cc3c[nH]c4ncnc(C)c34)c(F)n2)cn1 [Compound P-4002, [6-Fluoro-5-(4-methyl-7H-pyrrolo[2,3-d]pyrimidin-5-ylmethyl)-pyridin-2-yl]-(6-methoxy-pyridin-3-yl)-amine]",< 0.1,H (high solubility if the threshold concentration is >250 μm),M (moderate solubility if the threshold concentration is 31.3 μM to 250 μM),M (moderate solubility if the threshold concentration is 31.3 μM to 250 μM),M (moderate solubility if the threshold concentration is 31.3 μM to 250 μM)
"COc1ccc(Nc2ccc(C(=O)c3c[nH]c4ncnc(C5CC5)c34)c(F)n2)cn1 [Compound P-4022, (4-cyclopropyl-7H-pyrrolo[2,3-d]pyrimidin-5-yl)-[2-fluoro-6-(6-methoxy-pyridin-3-ylamino)-pyridin-3-yl]-methanone]",< 0.01,H (high solubility if the threshold concentration is >250 μm),M (moderate solubility if the threshold concentration is 31.3 μM to 250 μM),L (low solubility if the threshold concentration is <31.3 μM),L (low solubility if the threshold concentration is <31.3 μM)
"COc1ccc(Nc2ccc(Cc3c[nH]c4ncnc(C5CC5)c34)c(F)n2)cn1 [Compound P-4023, [5-(4-cyclopropyl-7H-pyrrolo[2,3-d]pyrimidin-5-ylmethyl)-6-fluoro-pyridin-2-yl]-(6-methoxy-pyridin-3-yl)-amine]",< 0.01,H (high solubility if the threshold concentration is >250 μm),M (moderate solubility if the threshold concentration is 31.3 μM to 250 μM),L (low solubility if the threshold concentration is <31.3 μM),L (low solubility if the threshold concentration is <31.3 μM)
"CCOc1ccc(Nc2ccc(C(=O)c3c[nH]c4ncnc(OC)c34)c(F)n2)cn1 [Compound P-4024, [6-(6-Ethoxy-pyridin-3-ylamino)-2-fluoro-pyridin-3-yl]-(4-methoxy-7H-pyrrolo[2,3-d]pyrimidin-5-yl)-methanone]",< 0.1,M (moderate solubility if the threshold concentration is 31.3 μM to 250 μM),L (low solubility if the threshold concentration is <31.3 μM),M (moderate solubility if the threshold concentration is 31.3 μM to 250 μM),M (moderate solubility if the threshold concentration is 31.3 μM to 250 μM)

# More lines, main results first:
IC50 [2] [µM],SMILES,"turbidity threshold (L, M, H) 1.4 [1]","turbidity threshold (L, M, H) 4.5 [1]","turbidity threshold (L, M, H) 6.8 [1]","turbidity threshold (L, M, H) 7.4 [1]"
< 0.1,"CCOc1ncnc2[nH]cc(C(=O)c3ccc(Nc4ccc(OC)nc4)nc3F)c12 [Compound P-4025, (4-Ethoxy-7H-pyrrolo[2,3-d]pyrimidin-5-yl)-[2-fluoro-6-(6-methoxy-pyridin-3-ylamino)-pyridin-3-yl]-methanone]",M (moderate solubility if the threshold concentration is 31.3 μM to 250 μM),L (low solubility if the threshold concentration is <31.3 μM),L (low solubility if the threshold concentration is <31.3 μM),L (low solubility if the threshold concentration is <31.3 μM)
< 0.1,"Cc1ccc(Nc2ccc(Cc3c[nH]c4ncnc(C5CC5)c34)c(F)n2)cn1 [Compound P-4030, [5-(4-Cyclopropyl-7H-pyrrolo[2,3-d]pyrimidin-5-ylmethyl)-6-fluoro-pyridin-2-yl]-(6-methyl-pyridin-3-yl)-amine]",–,–,–,–
< 0.01,"Cc1ccc(Nc2ccc(C(=O)c3c[nH]c4ncnc(C5CC5)c34)c(F)n2)cn1 [Compound P-4031, (4-Cyclopropyl-7H-pyrrolo[2,3-d]pyrimidin-5-yl)-[2-fluoro-6-(6-methyl-pyridin-3-ylamino)-pyridin-3-yl]-methanone]",–,–,–,–
< 0.1,"CCOc1ccc(Nc2ccc(C(=O)c3c[nH]c4ncnc(C)c34)c(F)n2)cn1 [Compound P-4032, [6-(6-Ethoxy-pyridin-3-ylamino)-2-fluoro-pyridin-3-yl]-(4-methyl-7H-pyrrolo[2,3-d]pyrimidin-5-yl)-methanone]",–,–,–,–
< 0.1,"CCn1cc(Nc2ccc(Cc3c[nH]c4ncnc(C5CC5)c34)c(F)n2)cn1 [Compound P-4036, [5-(4-Cyclopropyl-7H-pyrrolo[2,3-d]pyrimidin-5-ylmethyl)-6-fluoro-pyridin-2-yl]-(1-ethyl-1H-pyrazol-4-yl)-amine]",H (high solubility if the threshold concentration is >250 μm),M (moderate solubility if the threshold concentration is 31.3 μM to 250 μM),L (low solubility if the threshold concentration is <31.3 μM),L (low solubility if the threshold concentration is <31.3 μM)
< 0.1,"Cc1cncc(Nc2ccc(Cc3c[nH]c4ncnc(C5CC5)c34)c(F)n2)c1 [Compound P-4038, [5-(4-Cyclopropyl-7H-pyrrolo[2,3-d]pyrimidin-5-ylmethyl)-6-fluoro-pyridin-2-yl]-(5-methyl-pyridin-3-yl)-amine]",–,–,–,–
< 0.1,"Cc1cncc(Nc2ccc(C(=O)c3c[nH]c4ncnc(C5CC5)c34)c(F)n2)c1 [Compound P-4039, (4-Cyclopropyl-7H-pyrrolo[2,3-d]pyrimidin-5-yl)-[2-fluoro-6-(5-methyl-pyridin-3-ylamino)-pyridin-3-yl]-methanone]",–,–,–,–
< 0.1,"Fc1nc(NC2CCC(F)(F)CC2)ccc1Cc1c[nH]c2ncnc(NCC(F)(F)F)c12 [Compound P-4128, 5-[[6-[(4,4-difluorocyclohexyl)amino]-2-fluoro-3-pyridyl]methyl]-N-(2,2,2-trifluoroethyl)-7H-pyrrolo[2,3-d]pyrimidin-4-amine]",H (high solubility if the threshold concentration is >250 μm),M (moderate solubility if the threshold concentration is 31.3 μM to 250 μM),M (moderate solubility if the threshold concentration is 31.3 μM to 250 μM),M (moderate solubility if the threshold concentration is 31.3 μM to 250 μM)
